Read-outs that look alike come from different tables or passages of the source.

One series relates to Topo II. Nature of the series: Topo II activity assay, nuclear extracts of treated A-549 cells, catenated kDNA. Type of series: cell-based, human. The source says: First, we determined the effect of 9a on cell cycle distribution using flow cytometry analysis. […] Because it has been shown that 1-Topo I-DNA covalent complexes enhance the transcription-dependent degradation of Topo I via a 26S proteasome pathway,^32 the effects of 9a on the expression levels of Topo I and Topo II were investigated. […] Compound 9a acts directly on Topo I and results in the accumulation of covalent Topo I-DNA complexes followed by proteasomal Topo I degradation, which is the same effect as 1 and contributes to 9a's cytotoxicity.
(§1) Topo I activity test was performed using an assay kit (TopoGEN) according to the manufacturer's instructions. Nuclear extracts from 9a-treated A-549 cells were incubated with supercoiled DNA (for Topo I) or catenated kDNA (for Topo II) for 30 min at 37° C. Reaction mixture was separated by is 1% agarose gel in 1×TAE buffer. The gel was stained with ethidium bromide and photographed using Gel Doc XR (Bio-Rad).

The next series deals with T1, Topo I (Homo sapiens, UniProt P11387).
T1 sequence (P11387 1-765): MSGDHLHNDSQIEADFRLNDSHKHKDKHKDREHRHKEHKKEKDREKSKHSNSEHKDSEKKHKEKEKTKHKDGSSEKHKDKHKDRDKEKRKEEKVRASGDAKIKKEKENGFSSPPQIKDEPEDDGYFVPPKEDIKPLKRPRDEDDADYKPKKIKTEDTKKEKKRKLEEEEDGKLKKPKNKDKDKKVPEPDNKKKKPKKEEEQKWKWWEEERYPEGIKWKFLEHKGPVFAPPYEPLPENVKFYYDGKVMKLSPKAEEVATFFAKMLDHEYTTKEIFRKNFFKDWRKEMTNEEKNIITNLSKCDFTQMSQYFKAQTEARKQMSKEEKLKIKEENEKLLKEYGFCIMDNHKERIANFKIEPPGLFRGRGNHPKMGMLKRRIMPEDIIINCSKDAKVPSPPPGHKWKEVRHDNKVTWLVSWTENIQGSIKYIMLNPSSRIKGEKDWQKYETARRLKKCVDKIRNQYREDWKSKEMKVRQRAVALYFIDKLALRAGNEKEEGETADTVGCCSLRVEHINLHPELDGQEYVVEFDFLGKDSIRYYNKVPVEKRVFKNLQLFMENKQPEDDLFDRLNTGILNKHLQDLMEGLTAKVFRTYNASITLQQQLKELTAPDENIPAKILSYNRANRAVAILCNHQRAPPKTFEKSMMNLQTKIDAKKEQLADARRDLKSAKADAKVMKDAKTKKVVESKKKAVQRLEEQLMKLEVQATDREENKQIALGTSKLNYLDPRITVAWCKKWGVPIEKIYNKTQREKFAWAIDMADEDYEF
Nature of the series: Topo I activity assay, nuclear extracts of treated A-549 cells, supercoiled DNA. It counts as cell-based. Further details: Nuclear extracts from 9a-treated A-549 cells were incubated with supercoiled DNA (for Topo I); endogenous in cells; host or cells: A-549. The protocol: First, we determined the effect of 9a on cell cycle distribution using flow cytometry analysis. […] Because it has been shown that 1-Topo I-DNA covalent complexes enhance the transcription-dependent degradation of Topo I via a 26S proteasome pathway,^32 the effects of 9a on the expression levels of Topo I and Topo II were investigated.
as §1

Series [1] addresses T2, recombinant human Topoisomerase I (Homo sapiens, UniProt P11387).
T2 construct: purchased TopoGEN
T2 sequence (P11387 1-765): T1 sequence (P11387 1-765)
Nature of the series: Topoisomerase I activity assay in a cell-free system. Type of series: biochemical. The settings on record: purified recombinant human Topo I. The protocol:
Inhibition of Topo I activity by 9a in a cell-free system. A 1-delivative with an esterified 20-hydroxy group is expected to be activated by digestion with carboxylesterases. […] We authenticated the inhibitory effect of 9a against Topo I in a dose-dependent manner Thus, we confirmed that 9a is a new class of Topo I inhibitor.
One unit of recombinant human Topoisomerase I enzyme (TopoGEN) was pre-incubated for 20 min at 37° C. with vehicle, 9a, 1, 3, or SN-38 in a final volume of 20 μL reaction buffer (10 mM Tris-HCl, pH 7.9, 1 mM EDTA, 150 mM NaCl, 0.1% BSA, 0.1 mM spermidine, 5% glycerol) was then incubated with 250 ng of supercoiled plasmid DNA for 20 min. The supercoiled, relaxed, or nicked DNA was separated by 1% agarose gel in 1×TAE (Tris-Acetate-EDTA) buffer. Ethidium bromide stained agarose gel was photographed using Gel Doc XR (Bio-Rad).

In series [2] the test system is DU-145 (hormone-insensitive prostate cancer). The experiment in a line: Sulforhodamine B cytotoxicity assay, DU-145. Type of series: cell-based, human. The conditions noted are these: Homo sapiens, DU-145; Table 1; 72 h; average ± SD. The procedure:
(§2) The 12 novel 1-derivatives 9a-l were evaluated for in vitro antiproliferative activity against four human tumor cell lines, KB (nasopharyngeal), A-549 (lung), DU-145 (prostate), and KBvin (MDR KB subline), by using a sulforhodamine B colorimetric assay with triplicate experiments.^30 Compounds 1 and 3 were used as controls.
(§3) The human tumor cell lines used in this manuscript were A-549 (lung carcinoma), MDA-MB-231 (triple-negative breast cancer), DU-145 (hormone-insensitive prostate cancer), KB (originally isolated from epidermoid carcinoma of the nasopharynx), KBvin (vincristine-resistant KB subline), and HCT116 (colorectal adenocarcinoma). These cell lines were obtained from the Lineberger Comprehensive Cancer Center (UNC-CH) or from ATCC (Manassas, Va.), except KBvin, which was a generous gift of Professor Y.-C. Cheng (Yale University). All cell lines were maintained and assayed in RPMI-1640 medium containing 2 mM L-glutamine and 25 mM HEPES (HyClone), supplemented with 10% heat-inactivated fetal bovine serum (HyClone), 100 μg/mL streptomycin, 100 IU/mL penicillin, and 0.25 μg/mL amphotericin B (Cellgro) in a humidified atmosphere containing 5% CO2 in air. Compound stock solutions were prepared at 10 mM in DMSO and diluted with culture medium with the final DMSO concentration ≦0.01% (v/v), a concentration without effect on cell growth. The 4-6×10^3 cells/well were cultured for 72 h with various concentrations of test compounds in 96-well plate at 37° C. […] Each assay was performed in triplicate with duplicated samples.
On the technique in general: The SRB assay estimates cell density from bound dye.

The conditions of series [3]: i.p.; cited from earlier work.
Series [4] concerns MDA-MB-231 (triple-negative breast cancer). The experiment in a line: Sulforhodamine B cytotoxicity assay, MDA-MB-231. The settings on record: Homo sapiens, Table 4, read-out: IC50 (Average ± SD) MDA-MB-231. Type of series: cell-based.
Excerpt: as §3, with “Compound stock solutions were prepared at 10 mM in DMSO and diluted with culture medium with the final DMSO concentration ≦0.01% (v/v), a concentration without effect on cell growth.” left out

In series [5] the test system is KBvin (vincristine-resistant KB subline). The experiment in a line: Sulforhodamine B cytotoxicity assay, KBvin. The settings on record: Homo sapiens, KBVIN. Type of series: cell-based, human.
Excerpt: as §3, with “Compound stock solutions were prepared at 10 mM in DMSO and diluted with culture medium with the final DMSO concentration ≦0.01% (v/v), a concentration without effect on cell growth.” left out

The subject of series [6] is KB (epidermoid carcinoma of the nasopharynx). Nature of the series: Sulforhodamine B cytotoxicity assay, KB. Type of series: cell-based, human. The conditions noted are these: Homo sapiens. The procedure: as §2, §3
Series [7] deals with human colorectal adenocarcinoma HCT116 xenograft. The experiment in a line: Xenograft model antitumor assay. Type of series: in vivo, nu/nu mice. The procedure:
Xenograft model antitumor assay using human colorectal adenocarcinoma cell line HCT116 was performed according to the regimen in Table 2. The 31-day study utilized four groups of mice (n=8) bearing established HCT116 xenograft with mean volumes of approximately 200 mm^3 on day one. The tumor growth and animal body weight change for each treatment group were measured three times per week (FIGS. 2 and 3). Compound 9a was administered intravenously (i.v.) for 7 days and then intraperitoneally (i.p.) at 5 and 10 mg/kg once every day (QD) to the end.
Five- to six-week-old female nu/nu mice (National Laboratory Animal Center, Taiwan) were inoculated subcutaneously with 2×10^6 human colorectal adenocarcinoma HCT116 cells in flank. When the grafted tumor volume reached the average volume of 200 mm^3, mice were randomly divided into four groups (n=8). Vehicle control and compound 9a at 5 or 10 mg/kg were administered i.v. once a day (QD) for 7 days and then i.p. once a day to the end. As an experimental control group, 100 mg/kg of compound 3 was administered i.v. once a week (QWK) to the end. The length (L) and width (W) of graft was measured every 3 to 4 days to the end, and the tumor volume was calculated as LW^2/2. Results were evaluated statistically by Student's t-test. This study was approved by the Institutional Animal Care and Use Committee (IACUC) of the National Taiwan University (Taipei, Taiwan), and was performed according to the institutional guidelines.

A further series deals with A-549 (lung carcinoma). Nature of the series: Sulforhodamine B cytotoxicity assay, A-549. It counts as cell-based, human. The conditions noted are these: Homo sapiens, A549; Table 1; 72 h; average ± SD.
Excerpt: as §3, with “Compound stock solutions were prepared at 10 mM in DMSO and diluted with culture medium with the final DMSO concentration ≦0.01% (v/v), a concentration without effect on cell growth.” left out

By IC50 is commonly meant the concentration needed to halve the response being measured. One may read the LD50 as the dose at which mortality reaches 50%. `CC[C@@]1(O)C(=O)OCc2c1cc1n(c2=O)Cc2cc3ccccc3nc2-1` [Compound 1, Camptothecin, reference compound]: the “Topo II decatenation of kDNA” value in the series on Topo II is reported as “failed to decatenate kineoplast DNA”. Further, on Topo I, the “Topo I-mediated relaxation of supercoiled DNA” value is “inhibited the relaxation of supercoiled DNA”. The “Inhibition of Topo I activity (relaxation/nicking of supercoiled plasmid DNA)” value in series [1] is given as “inhibited Topo I activity”. This compound displayed an IC50 in [2] of 29 ± 2.5 nM. Also, the LD50 in [3] is recorded as 56.2 mg/kg.

As for `CC[C@@]1(O)C(=O)OCc2c1cc1n(c2=O)Cc2cc3c(CN(C)C)c(O)ccc3nc2-1` [Compound 2, topotecan, reference compound], the IC50 turned out to be 100 ± 5.5 nM in series [4]; 400 ± 21 nM in series [5] (Table 4, read-out: IC50 (Average ± SD) KBvin); 63 ± 4.2 nM in [6] (Table 4, read-out: IC50 (Average ± SD) KB).

As to `CCc1c2c(nc3ccc(OC(=O)N4CCC(N5CCCCC5)CC4)cc13)-c1cc3c(c(=O)n1C2)COC(=O)[C@]3(O)CC` [Compound 3, irinotecan, reference compound], the IC50 in series [5] (Table 1, 72 h, average ± SD, read-out: IC50 KBvin) was more than 20000 nM; in the series with A-549 (lung carcinoma), 9500 ± 110 nM; in [6] (Table 1, 72 h, average ± SD, read-out: IC50 KB) it was 9800 ± 480 nM; in [2], 9300 ± 610 nM. Also, in series [7] (100 mg/kg QWK i.v., n=8), the “mice showing complete regression” value is recorded as “three mice”. The “antitumor activity in vivo (tumor growth)” value in [7] (100 mg/kg QWK, P<0.001) is “exhibited antitumor activity”. Besides, in [1], the “Inhibition of Topo I activity (relaxation/nicking of supercoiled plasmid DNA)” value is “no inhibitory effect on Topo I activity”. Moreover, the LD50 in series [3] is 177.5 mg/kg.

Consider `CCc1c2c(nc3ccc(O)cc13)-c1cc3c(c(=O)n1C2)COC(=O)[C@]3(O)CC` [SN-38], for which the “Inhibition of Topo I activity (relaxation/nicking of supercoiled plasmid DNA)” value in [1] is given as “inhibited Topo I activity”.

Turning to `COc1cc([C@@H]2c3cc4c(cc3[C@@H](O[C@@H]3O[C@@H]5CO[C@@H](C)O[C@H]5[C@H](O)[C@H]3O)[C@H]3COC(=O)[C@H]23)OCO4)cc(OC)c1O` [etoposide], in the series with Topo II, the “Topo II decatenation of kDNA” value is “effectively blocked the decatenation of kDNA”.
